Experimental data published in patent US20220213030A1, “AMINOGUANIDINE HYDRAZONES AS RETROMER STABILIZERS USEFUL FOR TREATING NEUROLOGICAL DISEASES” (OSPEDALE SAN RAFFAELE SRL, priority 2019, published 2022).

What was measured:
[1] = tested on: Vps35, Vps26 and Vps29 mRNA; assay: Real time PCR of CRC genes in Neuro2a; assay type: cell-based, mouse; conditions: 10 μM, 48 hours
Experimental: (§1) Compound 2a increases the stability of the retromer complex in vitro. We further validated this concept by measuring VPS35 degradation rates by a cycloheximide (CHX) chase assay. Neuro2a cells received vehicle or lead 2a (10 μM) for 24 hours, then CHX was added to the medium, and VPS35 levels were measured by western blot. […] As is the case with R55 (Mecozzi, Berman et al. 2014), compound 2a should not influence the transcription levels of CRC genes in Neuro2a cells.
Lumbar spinal tracts dissected from saline perfused mice or Neuro2a cells were lysed to extract total RNAs using the RNeasy Mini Kit (Qiagen) according to the manufacturer's recommendations, including DNase (Promega) digestion. We synthetized the cDNA using ThermoScript RT-PCR System (Invitrogen) and Random Hexamer (Invitrogen), according to the manufacturer's instructions. The LightCycler 480 System (Roche) and LightCycler 480 SYBR Green I Master Mix (Roche) were used for real-time PCR experiments. Normalization was obtained using the housekeeping gene Histone H3
(H3 F: 5′-[…]-3′ H3 R: 5′-[…]-3′). The following specific primers were used for gene expression analysis: […]

G93A aggregates (SOD1) = assay: Blue-native gel electrophoresis of SOD1 aggregates in G93A mice; assay type: in vivo, mouse; conditions: 10 mg/kg daily, day 83 to day 103
Experimental: SOD1 mutations increase the propensity of this protein to aggregate in cells (Johnston 2000). We checked whether compound 2a could reduce the accumulation of G93A aggregates in vivo. Starting at post-natal day 83, we injected G93A mice and WT littermates daily with compound 2a (10 mg/kg). We scored motor performances in both vehicle- and compound 2a-treated G93A mice until day 103. […] At day 103, we resolved SC protein extracts by blue-native polyacrylamide gel electrophoresis, and probing these gels with anti-SOD1 antibodies we observed high molecular weight smears in G93A mice that were completely absent in WT litters. The intensity of these high molecular weight entities was lowered in mice treated with lead 2a (FIG. 14B, C). Altogether, retromer stabilization by compound 2a increases lysosomal homeostasis in vitro and in vivo, decreases poly ubiquitination of proteins, and therefore diminishes levels of G93A aggregation.
G93A mice and their WT litters were injected daily with vehicle or compound 2a (10 mg/kg, from day 83 to day 103). Lumbar spinal cords dissected from saline perfused mice were lysed in Tris-HCl 10 mM pH 8, EDTA 1 mM pH 8, NaCl 100 mM, NP40 1% and protease inhibitor cocktail (Sigma). Extracts were obtained using a tight-fitting glass Potter tissue grinder (1 ml; Wheaton). We incubated 250 μl of each extract with 100 mM Iodoacetamide (Sigma). […]

VPS35 [2] = target: T1, VPS35 (Mus musculus, UniProt Q9EQH3+Q9QZ88); assay: Cycloheximide (CHX) chase assay of VPS35 degradation in Neuro2a; assay type: cell-based; design: endogenous in cells; host or cells: Neuro2a; conditions: 10 μM for 24 hours, then CHX 10 μg/mL up to 8 h
Experimental: as §1
Cycloheximide (CHX) assay was done on Neuro2a cells seeded in 6-well plates and incubated with compound 2a (10 μM) or vehicle for 24 hours. We next added CHX (Sigma) at 10 μg/mL and cells were collected at 0, 2, 4 and 8 hours for the time-course assay of VPS35 levels.

VPS35 [3] = target: T1, VPS35; assay: VPS35 levels in spinal cord extracts of C57BL6J mice by western blot; assay type: in vivo; design: Lumbar spinal cords were dissected from saline perfused mice and rapidly homogenized; from tissue; host or cells: lumbar spinal cord of mice; conditions: 10 mg/kg daily intraperitoneal for 7 days
Experimental: We next asked whether the compound 2a can cross the blood brain barrier (BBB) of the brain. We run a pharmacokinetic assay on C57BL6J mice that received daily intraperitoneal injections of compound 2a (10 mg/Kg/day). Mice were sacrificed after 1, 7, 15 and 30 days saline perfused to avoid the CNS contamination of compounds contained in blood circulation and brains used for the determination of compound 2a levels by mass spectrometry. […] We next investigated in vivo if the retromer stabilization occurs in response to Compound 2a treatment. We intraperitoneally injected R55 and Compound 2a in adult C57BL6J mice as above described. After one week, mice were sacrificed, proteins extracts were assayed by western blot.
Lumbar spinal cords were dissected from saline perfused mice and rapidly homogenized in the following lysis buffer: Tris-HCl 10 mM pH 8, EDTA pH 8 1 mM, NaCl 100 mM, NP40 1% and protease inhibitor cocktail (Sigma). Protein extracts were obtained using a tight-fitting glass Potter tissue grinder (1 ml; Wheaton) and then sonicated at a frequency of 20 kHz (10 times-1s). […] Protein concentrations were measured by BCA protein assay kit (Thermofisher) according to the manufacturer's recommendations. […] Quantifications were done using the Image Lab 6.0.1 software (Bio-Rad).

Which results are given for `N=C(N)NN=Cc1cccc(C=NNC(=N)N)c1` [Compound 2a, 1,3-Bis-amino guanidine phenyl hydrazone]?
mRNAs levels of Vps35, Vps26 and Vps29 [1]: did not change; intensity of high molecular weight SOD1 entities (G93A aggregates (SOD1)): lowered; VPS35 degradation after CHX (VPS35 [2]): protected VPS35 from degradation; VPS35 levels in SC extracts (ratio versus vehicle-treated mice) (VPS35 [3]): ≈ 1.7
